Laboratory results reported in US20070213359A1 (ACADIA Pharmaceuticals Inc., priority 2005, published 2007).
Read-outs that look alike come from different tables or passages of the source.

Experiments:
GHSR1a receptor = target: T1, GHSR1a receptor (Homo sapiens, UniProt Q92847); assay: 125I-Ghrelin binding assay; conditions: displacement of 125I-ghrelin (0.053 nM), membranes of HEK293 cells transfected with GHSR1a; Cheng-Prussoff; '—' not defined; read-out: Binding pKi (converted)
T1 construct: expressed in transfected cells; host or cells: HEK293 (membranes)
T1 sequence (Q92847 whole entry): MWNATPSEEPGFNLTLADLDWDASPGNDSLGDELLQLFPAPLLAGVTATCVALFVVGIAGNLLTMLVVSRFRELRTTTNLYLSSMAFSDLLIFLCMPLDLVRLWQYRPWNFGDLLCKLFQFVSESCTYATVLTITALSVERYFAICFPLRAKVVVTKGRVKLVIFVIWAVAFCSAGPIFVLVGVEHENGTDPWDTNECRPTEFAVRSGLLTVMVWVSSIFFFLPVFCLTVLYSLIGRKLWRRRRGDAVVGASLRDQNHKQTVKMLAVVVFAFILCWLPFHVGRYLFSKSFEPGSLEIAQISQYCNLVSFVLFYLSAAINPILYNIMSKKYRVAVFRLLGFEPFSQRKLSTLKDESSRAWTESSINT
Description: Plasmid DNA containing the GHSR1a receptor (12.5 ug/dish) in 0.675 ml DMEM was transfected into the cells by mixing with 180 ul PolyFect, 15 min later mixing in 2.25 ml 10% CS/DMEM, and transferring the mixture into the dish. At 16-18 h post transfection, medium was replaced with 25 ml fresh 10% FCS/1% PSG/DMEM to each dish for another 18-20 h. At approximately 48 hours post-transfection, cells were harvested in ice-cold membrane buffer (20 mM HEPES, 6 mM MgCl2, 1 mM EDTA, pH to 7.2) using a cell scraper, and pelleted by centrifugation.
Pelleted cells were added to a nitrogen cavitation chamber and 900 bar of pressure applied for 30 min. The pressure was slowly released the cavitated cells collected in 50 ml falcon tubes. The tubes were centrifuged at 1000 rpm, 4° C. for 10 min, and the supernatant collected. This centrifugation and collection was repeated two more times until the supernatant was free of precipitate (membranes are still in suspension). The supernatant was poured into a 50 ml centrifuge tube and centrifuged at 10.000 rpm, 4° C. for 20 min. The supernatant was discarded and the pellet re-suspended in 750 μl membrane binding buffer using a chilled 1 ml syringe with 25G5/8 needle to re-suspend membranes. The protein concentration was determined using the BioRad Protein Assay Dye Reagent according to the manufacturers instructions. The protein concentration was adjusted to 5 mg/ml and aliquots snap-frozed and stored at −80 C until use.
Membranes were thawed rapidly; diluted with binding buffer (25 mM Hepes+5 mM MgCl2, 1 mM CaCl2, 2.5 mM EDTA and 0.2% BSA) to a protein concentration of 0.8 ug/30 ul and placed on ice. 96-well plates (U-bottom wells) were prepared with serial dilutions (8 doses, 40 ul/w) of the test compounds. Membranes (30 uL/well) were then added, and incubated with test ligands for 30 min at room temperature with shaking. […] Binding was terminated by filtration through GF/B filters (presoaked with 0.1% polyethylenimine) with a Brandel 96-well harvester. The filters were washed with ice-cold binding buffer (150 ml/plate) and allowed to air-dry for 30 min. 50 ul MicroScient-20 cocktail was added to each dried well, the plates were sealed, and counted for 2 min/well using a TopCount scintillation counter (Packard).

Ghrelin receptor = Ghrelin receptor (Homo sapiens, UniProt Q92847); assay: Receptor Selection and Amplification Technology (R-SAT) assay; format: cell-based; design: expressed in transfected cells; host or cells: NIH3T3; conditions: for IC50: '—' not defined (nd used separately), read-out: RSAT pIC50 (converted); for Emax: read-out: RSAT Eff(%)
Ghrelin receptor, sequence (Q92847 whole entry): as above

[1] = negative logarithm of ligand concentration causing 50% inhibition of constitutive receptor response, transfected NIH3T3 cells
[2] = percent inhibition at saturating ligand, normalized to reference ligand Substance P analog = 100%

Compound | Ki (GHSR1a receptor) [nM] | IC50 (Ghrelin receptor; […]) [nM] | Emax (Ghrelin receptor) [%] | IC50 (Ghrelin receptor; [1]) [nM] | Emax (Ghrelin receptor; [2]) [%] | RSAT Eff(%) (Ghrelin receptor; [2])
COc1cccc2c(C(=O)c3ccccc3)cn(CCCN3CCCN(Cc4ccccc4Cl)CC3)c12 | 3.98 | 0.398 | 98 | – | – | –
COc1cccc2c(C(=O)Cc3ccccc3)cn(CCCN3CCCN(Cc4ccc(F)cc4)CC3)c12 | 7.94 | 0.398 | 87 | – | – | –
COc1cccc2c(C(=O)Cc3ccccc3)cn(CCCN3CCCN(Cc4ccccc4Cl)CC3)c12 | 6.31 | 0.501 | 92 | – | – | –
COc1cccc2c(C(=O)c3ccccc3)cn(CCCN3C4CCC3CC(CC(=O)c3ccccc3)C4)c12 (stereo not drawn) | 100 | 5.01 | 101 | – | – | –
CC(=O)c1cn(CCCN2CCCN(Cc3ccccc3Cl)CC2)c2c(C#N)cccc12 | 63.1 | – | – | 6.31 | 98 | –
COc1cccc2c(C(=O)c3ccccc3)cn(CCCN3CCC(Oc4ccccc4Cl)CC3)c12 | 158 | 6.31 | 79 | – | – | –
COc1cccc2c(C(=O)NCC(C)C)cn(CCCN3C4CCC3CC(Oc3ccc(Cl)cc3)C4)c12 (stereo not drawn) | 100 | – | – | 6.31 | – | 107
COc1cccc2c(C(=O)c3ccccc3)cn(CCCN3CCC(Oc4ccc(Cl)cc4)CC3)c12 | 100 | 6.31 | 93 | – | – | –
COc1cccc2c(C(C)=O)cn(CCCN3CCN(c4ncccc4C(F)(F)F)CC3)c12 | 1000 | – | – | 6.31 | 108 | –
COc1cccc2c(C(=O)c3ccccc3)cn(CCCN3CCN(Oc4cccc(Cl)c4)CC3)c12 | 7.94 | 6.31 | 79 | – | – | –
COc1cccc2c(C(C)=O)cn(CCCN3CCN(c4c(C)cccc4C)CC3)c12 | 1000 | – | – | 6.31 | 107 | –
COc1cccc2c(C(=O)c3ccccc3)cn(CCCN3C4CCC3CC(Oc3ccc(Cl)cc3)C4)c12 (stereo not drawn) | 100 | 7.94 | 91 | – | – | –
CC(=O)c1cn(CCCN2CCC(Oc3cccc(Cl)c3)CC2)c2c(C#N)cccc12 | 158 | – | – | 7.94 | 101 | –
CCCCC[C@H]1C[C@H]2CC[C@@H](C1)N2CCCn1cc(C(=O)NCC(C)C)c2cccc(OC)c21 | 79.4 | – | 135 | 7.94 | – | –
CCCCC1CCN(CCCn2cc(C(=O)NCC(C)C)c3cccc(OC)c32)CC1 | 200 | 7.94 | 93 | – | – | –
COc1cccc2c(C(C)=O)cn(CCCN3CCN(c4cccc(Cl)c4)CC3)c12 | 501 | – | – | 7.94 | 99 | –
CC(=O)c1cn(CCCN2C3CCC2CC(CCc2ccccc2)C3)c2c(C#N)cccc12 (stereo not drawn) | 39.8 | – | 106 | 7.94 | – | –
CC(=O)c1cn(CCCN2C3CCC2CC(CCc2ccccc2)C3)c2c(Br)cccc12 (stereo not drawn) | 79.4 | – | – | 7.94 | 107 | –
COc1cccc2c(C(=O)NCc3cccc(Cl)c3)cn(CCCN3CCC(Oc4cccc(Cl)c4)CC3)c12 | 63.1 | – | 100 | 7.94 | – | –
COc1cccc2c(C(=O)NCC(C)C)cn(CCCN3CCC(Oc4ccccc4Cl)CC3)c12 | 63.1 | – | 100 | 7.94 | – | –
CC(=O)c1cn(CCCN2CCCN(Cc3ccccc3Cl)CC2)c2c(Cl)cccc12 | 79.4 | – | – | 7.94 | 92 | –
COc1cccc2c(C(=O)Cc3ccccc3)cn(CCCN3CCN(CCOc4ccc(Cl)cc4)CC3)c12 | 3160 | 7.94 | 82 | – | – | –
COc1cccc2c(C(C)=O)cn(CCCN3CCN(c4cccc(Cl)c4Cl)CC3)c12 | 398 | – | – | 7.94 | 103 | –
CCCCC1CCN(CCCn2cc(C(C)=O)c3cccc(C)c32)CC1 | 316 | – | – | 7.94 | 78 | –
COc1cccc2c(C(=O)NCC(C)C)cn(CCCN3C4CCC3CC(Oc3ccccc3Cl)C4)c12 (stereo not drawn) | 100 | – | – | 10 | – | 116
CC(=O)c1cn(CCCN2CCC(c3nc4ccccc4s3)CC2)c2c(Br)cccc12 | 200 | – | – | 10 | 81 | –
